Laboratory results published in patent publication US8426386B2, “NK1 receptor antagonist composition” (Lion Corporation, priority 2006, dated 2013).

Tested on: NK1 receptor
Assay: NK1 Receptor Antagonism Assay (calcium imaging, substance P stimulation)
Type: cell-based, human
Conditions: for effect as the NK1 receptor antagonist (in words): summary of Table 1
Description: [Performance Evaluation Test] NK1 Receptor Antagonism Assay
In this test, maltose, maltotriose, maltotetraose, maltopentaose, maltohexaose and maltoheptaose were purchased from SIGMA, isomaltose, isomaltotriose, isomaltotetraose, isomaltopentaose, isomaltohexaose and isomaltoheptaose were purchased from Seikagaku Corporation, and four types of oligosaccharides-1-kestose, fructofranosylnystose, nystose and galactotetraose—were purchased from Wako Pure Chemicals Industries Ltd. Each oligosaccharide was diluted with saline, and used.
In order to transiently express a cloned human NK1 receptor in HEK293, cDNA of the human NK1 receptor was cut out from pCDM8 (Invitrogen), and cloned in an expression vector pCDM9 derived by inserting an ampicillin resistant gene (BLUESCRIPT, nucleotides 1973 to 2964 from SK+) at a SacII site.
HEK293 cells were seeded at 1×10^5 cells in a Falcon dish (diameter: 3.5 cm) using α-MEM medium (Gibco) containing 10% bovine fetal serum, and cultured in a 5% CO2 incubator at 37° C. overnight. Then, 20 μg of the expression vector was transfected using Transfection Reagent FuGENE6 (Roche) according to attached instructions, and the transfectants were incubated at 37° C. for 3 days and assayed by a calcium imaging method.
According to Renganathan et al's method (Renganathan M et al., J. Neurophysiol., 84(2), […] (2000)), nerve cells were dispersed and isolated from spinal dorsal root ganglion in a wild type mouse, and 1×10^5 thereof were seeded in a 24-well plate coated with poly-L-lysine. The cells were cultured in 90% DMEM medium (GIBCO) supplemented with 10% bovine fetal serum, 2 mM glutamine, 100 U/mL of penicillin/streptomycin, 100 ng/mL of NGF (SIGMA) and 5 μM cytosine arabinoside (SIGMA) under 5% CO2 at 37° C. The cells were cultured for 1 to 3 weeks, and subsequently subjected to a calcium imaging analysis. A half of the nerve cells was identified to be positive for the NK1 receptor by staining the nerve cells derived from spinal dorsal root ganglion in the wild type mouse with an anti-NK1 receptor antibody (supplied from CHEMICON International).
The cells which express the NK1 receptor transiently or constitutively were subjected to measurement using a high resolution digital B/W cooling CCD camera (ORCA supplied from Hamamatsu Photonics K.K.), and their images were analyzed using an analysis software (AQUA COSMOS supplied from Hamamatsu Photonics K.K.). When the cells were labeled for calcium, Fluo4-AM (supplied from Molecular Probe) was used as a calcium sensitive dye. Fifty μg of Fluo4-AM was dissolved in 400 μL of DMSO in a vial, 4 μL of Pluronic F-127 (Molecular Probe) was added and mixed, and then 4 mL of OPTI-MEM (GIBCO) was added thereto. The calcium sensitive dye solution thus prepared was added to the cells, which were then incubated at 37° C. for 60 minutes. An agonist, an antagonist and samples to be evaluated were prepared at concentrations which were 10 times higher than assay concentrations, and analyzed by adding a one tenth volume of the cell suspension upon analysis. All reagents and an assay temperature were kept at 37° C. For the cells transfected transiently, YFP reporter DNA fluorescence (excitation: 490 nm) was used for identifying the transfected cells. Upon measurement, a fluorescence intensity obtained by initially imaging the untreated cells was made an initial value. After passing one minute, a change of calcium/fluorescence intensity in the sample to be evaluated at the desired concentration was monitored with an interval of one second before and after the addition (2 to 5 minutes). Subsequently, substance P was added, and immediately after (2 to 5 minutes), an antagonistic activity of the sample to be evaluated was determined by monitoring the change of intracellular calcium concentrations as the change of the fluorescence intensities with the interval of one second. […]

[1] = evaluated concentration 1000 ppm, substance P 100 μM
[2] = evaluated concentration 0.1 ppm, substance P 100 μM
[3] = evaluated concentration 1 ppm, substance P 100 μM
[4] = evaluated concentration 10 ppm, substance P 100 μM
[5] = evaluated concentration 100 ppm, substance P 100 μM

With `OC[C@H]1O[C@@](CO)(OC[C@@]2(OC[C@@]3(O[C@H]4O[C@H](CO)[C@@H](O)[C@H](O)[C@H]4O)O[C@H](CO)[C@@H](O)[C@@H]3O)O[C@H](CO)[C@@H](O)[C@@H]2O)[C@@H](O)[C@@H]1O` [Nystose, nystose, reference compound] the “Efficacy (NK1 receptor antagonistic activity grade)” value [1] was “D (Ineffective: the antagonistic activity was less than 65%, or the stimulating or agonistic activity of the sample was strong.)” and the “effect as the NK1 receptor antagonist (in words)” value (shortened to “effect”) was “no NK1 receptor antagonistic activity was observed at all”.

“SPANTIDE II: standard substance SPANTIDE II (peptidic analog of substance P), positive control (SPANTIDEII) [reference compound]” was tested, and the “NK1 receptor antagonistic activity” value (positive control, 100 ppm (Table 1), substance P 100 μM) was 65%.

maltoheptaose was tested, and the “Efficacy (NK1 receptor antagonistic activity grade)” value [2] was “D (Ineffective: the antagonistic activity was less than 65%, or the stimulating or agonistic activity of the sample was strong.)”, the “Efficacy (NK1 receptor antagonistic activity grade)” value [3] was “C (Slightly effective: the antagonistic activity was less than 65%, and a stimulating or agonistic activity of the sample was weak.)” and the “Efficacy (NK1 receptor antagonistic activity grade)” value [4] was “C (Slightly effective: the antagonistic activity was less than 65%, and a stimulating or agonistic activity of the sample was weak.)”. For the same molecule, the “Efficacy (NK1 receptor antagonistic activity grade)” value [5] was “B (Effective: the antagonistic activity was 65% or more and less than 75% and the more excellent performance than in the positive control was shown.)”, the “Efficacy (NK1 receptor antagonistic activity grade)” value [1] was “B (Effective: the antagonistic activity was 65% or more and less than 75% and the more excellent performance than in the positive control was shown.)” and the “effect” value was “high effect”.

For maltohexaose, the “Efficacy (NK1 receptor antagonistic activity grade)” value [2] was “C (Slightly effective: the antagonistic activity was less than 65%, and a stimulating or agonistic activity of the sample was weak.)”, the “Efficacy (NK1 receptor antagonistic activity grade)” value [3] was “C (Slightly effective: the antagonistic activity was less than 65%, and a stimulating or agonistic activity of the sample was weak.)” and the “Efficacy (NK1 receptor antagonistic activity grade)” value [4] was “B (Effective: the antagonistic activity was 65% or more and less than 75% and the more excellent performance than in the positive control was shown.)”. For the same molecule, the “Efficacy (NK1 receptor antagonistic activity grade)” value [5] was “B (Effective: the antagonistic activity was 65% or more and less than 75% and the more excellent performance than in the positive control was shown.)”, the “Efficacy (NK1 receptor antagonistic activity grade)” value [1] was “B (Effective: the antagonistic activity was 65% or more and less than 75% and the more excellent performance than in the positive control was shown.)” and the “effect” value was “high effect”.

maltopentaose was tested, and the “efficacy at a low concentration (in words)” value (0.1 ppm) was “high efficacy”, the “Efficacy (NK1 receptor antagonistic activity grade)” value [2] was “B (Effective: the antagonistic activity was 65% or more and less than 75% and the more excellent performance than in the positive control was shown.)” and the “Efficacy (NK1 receptor antagonistic activity grade)” value [3] was “B (Effective: the antagonistic activity was 65% or more and less than 75% and the more excellent performance than in the positive control was shown.)”. For the same molecule, the “Efficacy (NK1 receptor antagonistic activity grade)” value [4] was “B (Effective: the antagonistic activity was 65% or more and less than 75% and the more excellent performance than in the positive control was shown.)”, the “Efficacy (NK1 receptor antagonistic activity grade)” value [5] was “A (Complete response: the antagonistic activity was 75% or more and much more excellent performance than in the positive control was shown.)” and the “Efficacy (NK1 receptor antagonistic activity grade)” value [1] was “A (Complete response: the antagonistic activity was 75% or more and much more excellent performance than in the positive control was shown.)”. The “effect” value was “high effect”.

With maltotriose the “Efficacy (NK1 receptor antagonistic activity grade)” value [2] was “C (Slightly effective: the antagonistic activity was less than 65%, and a stimulating or agonistic activity of the sample was weak.)”, the “Efficacy (NK1 receptor antagonistic activity grade)” value [3] was “C (Slightly effective: the antagonistic activity was less than 65%, and a stimulating or agonistic activity of the sample was weak.)” and the “Efficacy (NK1 receptor antagonistic activity grade)” value [4] was “C (Slightly effective: the antagonistic activity was less than 65%, and a stimulating or agonistic activity of the sample was weak.)”. For the same molecule, the “Efficacy (NK1 receptor antagonistic activity grade)” value [5] was “B (Effective: the antagonistic activity was 65% or more and less than 75% and the more excellent performance than in the positive control was shown.)”, the “Efficacy (NK1 receptor antagonistic activity grade)” value [1] was “A (Complete response: the antagonistic activity was 75% or more and much more excellent performance than in the positive control was shown.)” and the “effect” value was “high effect”.
